Results: patent publication US6641840B2, “Sustained release formulations for growth hormone secretagogues” (Pfizer Inc., priority 2000, dated 2003)
Like-named read-outs stand apart in the source and are kept apart here.

How the values were obtained:
rat pituitary cells = experiment: Pituitary cell desensitization - growth hormone release assay; format: cell-based; conditions: for GH release: treatment 10 nM Compound A 15 min
Description: The experiment was designed so that cultures were exposed to a growth hormone secretagogue for 60 min, then growth hormone release was measured during a subsequent 15 min exposure to the same or different growth hormone secretagogue.
Anterior pituitary glands from male Wistar rats (150-175 g, Charles River, Laboratories, Wilmington, Mass.) were collected in Hank's Balanced Salt Solution (#14170, Life Technologies, Gaithersburg, Md.). Glands were minced with a scalpel, then incubated with bacterial protease (Type IX, EC3.4.24.4, #P-6141, Sigma Chemicals, Milwaukee, Wis.) at 10 U/ml to release individual cells. Cells were pelleted by centrifugation at 200×g for 15 min, then suspended in culture medium and plated at a density of 6.0-6.5×10^4 cells per 0.5 ml per well in 48-well tissue culture plates (#3848, Costar Corporation, Cambridge, Mass.). Culture medium consisted of D-MEM (Dulbecco's Modified Eagle Medium) with high glucose and sodium bicarbonate (#11965) supplemented with 10% heat-inactivated horse serum (#26050, Life Technologies, Gaithersburg, Md.), 2.5% fetal bovine serum (#16140, Life Technologies, Gaithersburg, Md.), 0.1 mM MEM non-essential amino acids (#11140, Life Technologies, Gaithersburg, Md.), 100 U/ml nystatin (#15340, Life Technologies, Gaithersburg, Md.) and 50 ug/ml gentamicin sulfate (#15750, Life Technologies, Gaithersburg, Md.). Cultures were maintained for 3-4 days in a humidified, 5% CO2/95% air incubator at 37° C. prior to performing assays for growth hormone release.
For growth hormone release assays, cultures were pre-equilibrated at 37° C. in pre-warmed release medium for 1 h in the presence of a growth hormone secretagogue or excipient (Pretreatment). Release medium consisted of Phenol Red-free D-MEM without bicarbonate (#23800, Life Technologies, Gaithersburg, Md.) supplemented with 25 mM N-[2-hydroxyethyl]piperazine-N′-[2-ethanesulfonic acid] (HEPES), 4.5 g/L glucose, 0.11 g/L sodium pyruvate, 0.584 g/L […] and 0.5% bovine serum albumin (#A-7888, Sigma Chemicals, Milwaukee, Wis.), adjusted to pH 7.4. After pretreatment, the medium was removed and replaced with fresh pre-warmed release medium containing a growth hormone secretagogue or excipient at 0.5 ml/well for 15 min (Treatment). Medium from the Treatment was collected, centrifuged to remove any cells, then assayed for growth hormone content by a conventional double-antibody radioimmunoassay using monkey anti-growth hormone antisera (NIDDK anti-rGH-S-5) and reference rat growth hormone standard (NIDDK-rGH-RP) from Dr. A. F. Parlow, Harbor-UCLA Medical Center, Torrance, Calif. Immune complexes were precipitated using goat anti-monkey immunoglobulin G (#55418, Cappel, Durham, N.C.).
Growth hormone secretagogue solutions were prepared at 1000 times the desired concentration and diluted into pre-warmed release medium immediately before use. Peptides such as His-D-Trp-Ala-Trp-Ala-Trp-D-Phe-Lys-NH2 (GHRP-6, #8061, Peninsula Laboratories, Belmont, Calif.) and rat growth hormone releasing factor (GHRH, #8068, Peninsula Laboratories, Belmont, Calif.) were dissolved at 100 μM in 4 mM acetic acid, 10% ethanol, 0.1% bovine serum albumin; other growth hormone secretagogues were dissolved at 5 mM in dimethyl sulfoxide.

[1] = Excipient selection based on active compound solubility screening; format: physicochemical; conditions: for solubility at 5 min: filtrate of excipient solution in water, 37 °C, thermodynamic from solid
Description: Such excipients are useful in making osmotic sustained release tablets. […] The active compound solubility measured in this manner exceeded 150 mgA/ml (mgA is the milligrams of active compound).
The excipients were screened by preparing a saturated solution (unless otherwise noted) of the candidate excipient in water at 37° C. for 2 hrs, and filtering the undissolved portion. […] The solution was maintained at 37° C. for 5 minutes prior to making the visual observation for any undissolved particulates.

[2] = One compartment pharmacokinetic model fitted to observed human plasma concentrations
From the text: A one compartment pharmacokinetic model was constructed using the following equations (I Think, Stella, HPS, Hanover, N.H.): […]
where ba is bioavailability (1.0), Vdist_liter is volume of distribution in units of liters (0.75), ka_hr1 is absorption rate constant in units of reciprocal hr (1.3), and thalf_hr is the plasma concentration vs. time elimination half-life in units of hr (2.5).
These parameters were then fixed to the values noted above for all subsequent simulations.

[3] = fitted one compartment model, humans

Structure (SMILES): CN1N=C2CCN(C(=O)[C@@H](COCc3ccccc3)NC(=O)C(C)(C)N)C[C@@]2(Cc2ccccc2)C1=O.O=C(O)C(O)C(O)C(=O)O [Compound A]
- growth hormone release response (rat pituitary cells; after pretreatment with GHRH): stimulation of growth hormone release
- growth hormone release response (rat pituitary cells; after pretreatment with GHRP-6): not
- GH release (rat pituitary cells; pretreatment 100 nM GHRH 60 min): 36.99 ± 2.43 ng/mL/15 min
- GH release (rat pituitary cells; pretreatment 100 nM GHRP-6 60 min): 7.64 ± 1.92 ng/mL/15 min
- GH release (rat pituitary cells; pretreatment none): 25.17 ± 4.32 ng/mL/15 min
- visual observation on addition of Compound A ([1]; L-lysine solution 50 mg/ml, 37° C.): cloudy gel
- solubility at 5 min ([1]; aqueous buffer, L-lysine solution 50 mg/ml (below saturation), 37° C., read-out: COMPOUND A Solubility): < 50 mg/mL
- solubility at 5 min ([1]; aqueous buffer, saturated L-arginine solution, approx. 150 mg/ml, 37° C., read-out: COMPOUND A Solubility): < 50 mg/mL
- solubility at 5 min ([1]; aqueous buffer, saturated L-aspartic acid solution, approx. 7 mg/ml, 37° C., read-out: COMPOUND A Solubility): > 150 mg/mL
- solubility at 5 min ([1]; aqueous buffer, saturated ascorbic acid solution, approx. 400 mg/ml, 37° C., read-out: COMPOUND A Solubility): > 150 mg/mL
- solubility at 5 min ([1]; aqueous buffer, saturated citric acid solution, approx. 600 mg/ml, 37° C., read-out: COMPOUND A Solubility): > 150 mg/mL
- solubility at 5 min ([1]; aqueous buffer, saturated fumaric acid solution, approx. 10 mg/ml, 37° C., read-out: COMPOUND A Solubility): > 150 mg/mL
- solubility at 5 min ([1]; aqueous buffer, saturated potassium phosphate monobasic solution, approx. 400 mg/ml, 37° C., read-out: COMPOUND A Solubility): < 50 mg/mL
- solubility at 5 min ([1]; aqueous buffer, saturated sodium bitartrate solution, approx. 110 mg/ml, 37° C., read-out: COMPOUND A Solubility): > 150 mg/mL
- solubility at 5 min ([1]; aqueous buffer, saturated sodium citrate solution, approx. 520 mg/ml, 37° C., read-out: COMPOUND A Solubility): < 50 mg/mL
- solubility at 5 min ([1]; aqueous buffer, saturated sodium phosphate monobasic solution, approx. 1000 mg/ml, 37° C., read-out: COMPOUND A Solubility): < 50 mg/mL
- solubility at 5 min ([1]; aqueous buffer, saturated sodium phosphate tribasic solution, approx. 290 mg/ml, 37° C., read-out: COMPOUND A Solubility): < 50 mg/mL
- solubility at 5 min ([1]; aqueous buffer, saturated succinic acid solution, approx. 80 mg/ml, 37° C., read-out: COMPOUND A Solubility): > 150 mg/mL
- solubility at 5 min ([1]; aqueous buffer, sodium bitartrate buffer, read-out: solubility of the active compound): > 150 mg/mL
- solubility at 5 min ([1]; aqueous buffer, tartaric acid solution 50 mg/ml (below saturation), 37° C., read-out: COMPOUND A Solubility): > 150 mg/mL
- solubility at 5 min ([1]; aqueous with cosolvent or surfactant or cyclodextrin, cyclodextrin, sulfobutylether solution, approx. 1000 mg/ml, 37° C., read-out: COMPOUND A Solubility): 100 to 150 mg/mL
- solubility at 5 min ([1]; aqueous with cosolvent or surfactant or cyclodextrin, polyethylene glycol (Carbowax 3350) 50 mg/ml, 37° C., read-out: COMPOUND A Solubility): > 150 mg/mL
- solubility at 5 min ([1]; aqueous with cosolvent or surfactant or cyclodextrin, sodium lauryl sulfate solution, approx. 50 mg/ml, 37° C., read-out: COMPOUND A Solubility): 50 to 100 mg/mL
- solubility at 5 min ([1]; aqueous with cosolvent or surfactant or cyclodextrin, sulfobutylether cyclodextrin, read-out: active compound substance solubility): 100 to 150 mg/mL
- solubility at 5 min ([1]; saline or isotonic, saturated potassium chloride solution, approx. 360 mg/ml, 37° C., read-out: COMPOUND A Solubility): < 50 mg/mL
- solubility at 5 min ([1]; saline or isotonic, saturated sodium chloride solution, approx. 360 mg/ml, 37° C., read-out: COMPOUND A Solubility): < 50 mg/mL
- solubility at 5 min ([1]; visual screening, 37° C., read-out: active compound solubility measured in this manner): > 150 mg/mL
- solubility at 5 min ([1]; water, calcium stearate < 1 mg/ml, prepared at 2 mg/mL, 37° C., read-out: COMPOUND A Solubility): > 150 mg/mL
- solubility at 5 min ([1]; water, magnesium stearate < 1 mg/ml, 37° C., read-out: COMPOUND A Solubility): > 150 mg/mL
- solubility at 5 min ([1]; water, microcrystalline cellulose (Avicel PH102) < 1 mg/ml, prepared at 80 mg/ml, 37° C., read-out: COMPOUND A Solubility): > 150 mg/mL
- solubility at 5 min ([1]; water, microcrystalline cellulose, silicified (Prosolv SMCC50) < 1 mg/ml, prepared at 80 mg/ml, 37° C., read-out: COMPOUND A Solubility): > 150 mg/mL
- visual observation on addition of Compound A ([1]; saturated potassium chloride solution, 37° C.): cloudy gel
- visual observation on addition of Compound A ([1]; saturated sodium chloride solution, 37° C.): cloudy gel
- visual observation on addition of Compound A ([1]; saturated sodium citrate solution, 37° C.): cloudy gel
- visual observation on addition of Compound A ([1]; saturated sodium phosphate monobasic solution, 37° C.): cloudy gel
- visual observation on addition of Compound A ([1]; saturated sodium phosphate tribasic solution, 37° C.): cloudy gel
- visual observation on addition of Compound A ([1]; sodium lauryl sulfate solution 50 mg/ml, 37° C.): clear gel
- absorption rate constant (ka_hr1) [2, 3]: 1.3 reciprocal hr
- plasma concentration vs. time elimination half-life (thalf_hr) [2, 3]: 2.5 h
- volume of distribution (Vdist_liter) [2, 3]: 0.75 L
- bioavailability (ba) ([2]; fitted to observed plasma concentrations after oral 10, 3 and 0.3 mg doses to humans): 1.0
